Structures are written as SMILES. Converted amounts (≈) assume the structure as drawn. “Also recorded” adds a separate entry of the source.

This is an account of results in patent publication US9126968B2, “Quinic acid derivative, process for preparation and uses thereof” (NATIONAL APPLIED RESEARCH LABORATORIES, priority 2013, dated 2015).

Series [1] concerns T-cells. The series can be described thus: in vitro cytotoxicity test (MTT assay). The class given is cell-based. Conditions: compared with cynarin, FIG. 5. The method, then:
The amount of survival T-cells is measured by MTT assay. […] Conversely, they are less cytotoxic than cynarin.

Series [2] relates to T-cells. The series can be described thus: in vitro efficacy test: production of IL-2 from T-cells. Conditions: compared with cynarin; FIG. 6. The class given is cell-based. An excerpt: The production of IL-2 is reduced when the activation of T-cells is interfered.
Series [3] deals with CD28 of T-cells and CD80 of B-cells (Homo sapiens, UniProt P10747). Description: unbinding force test. Conditions: in the presence of Cyn-1324; about 41.9 pN in its absence; FIG. 7. Type of series: binding. An excerpt: In the absence of Cyn-1324, the average unbinding force is about 41.9 pN. Conversely, in the presence of Cyn-1324, the average unbinding force is reduced to about 29.1 pN. The results shown in FIG. 7 provide the physical evidence that Cyn-1324 repulses the binding between CD28 and CD80, thus blocking the signal 2 pathway induced by the interaction of CD28 and co-stimulatory molecules such as CD80 or CD86.

Series [4] deals with IL-2 expressed from signal 2 pathway of T-cells. Description: in vitro IC50 measurement (reduction of IL-2). Type of series: cell-based. Conditions: T-cell; dosage causing 50% reduction of IL-2; FIG. 8; read-out: IC50 on blocking T-cell immune response. An excerpt: The IC50 represents the dosage which causes 50% reduction of IL-2 expressed from signal 2 pathway of T-cells.

The subject of series [5] is OVA-sensitized mice. The series can be described thus: in vivo animal test of immuno-suppressive effect (serum antibodies via ELISA). The following applies: OVA-sensitized BALB/c mice, serum on 14th day, FIG. 9. The method, then: The four BALB/c mice groups are treated with phosphate-buffered saline (PBS), ovalbulmin (OVA), OVA/Cyn-1324 or OVA/cyclosporin A (CSA), respectively. CSA is used currently in clinics for suppressing immune response. The 14th-day from the treatments, the serum is collected, and the antibodies such as IgG and IgE are analyzed via ELISA. […] Accordingly, Cyn-1324 is effective for suppressing immune response.

For series [6] the following is noted: mouse, in vivo. The method, then:
One of the four mice groups is treated with PBS, and three of the four groups are sensitized with OVA.

The nature of series [7]: single dose toxicity test. The following applies: mouse, in vivo, mice, read-out: maximum tolerance dose (MTD).
Series [8] has as its system OVA-sensitized mice. The following applies: mouse, in vivo.

Chain of CD28 of T-cells and CD80 of B-cells (P10747 19-220): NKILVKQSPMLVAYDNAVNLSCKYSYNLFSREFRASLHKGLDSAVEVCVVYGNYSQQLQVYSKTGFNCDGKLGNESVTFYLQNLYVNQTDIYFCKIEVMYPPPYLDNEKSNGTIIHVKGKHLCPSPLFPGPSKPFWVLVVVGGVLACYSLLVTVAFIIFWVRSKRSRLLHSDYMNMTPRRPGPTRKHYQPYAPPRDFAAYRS

Take `CC(C)CNC(=O)[C@@]1(O)C[C@@H](O)[C@@H]2OC3(CCCCC3)O[C@@H]2C1` [Cyn-1324, (3aR,5R,7R,7aS)-5,7-dihydroxy-N-(2-methylpropyl)hexahydrospiro[1,3-benzodioxole-2,1′-cyclohexane]-5-carboxamide]: the “cell survival rates of T-cells (cytotoxicity)” value in the series with T-cells [1] is reported as “higher than cynarin; also recorded: lowest cytotoxicity”. Besides, in the series on T-cells [2], the “efficacy to suppress T-cell activation (production of IL-2)” value is reported as “higher (or equal) efficacy; also recorded: high efficacy”. Besides, the average unbinding force entry in series [3] is recorded as “about 29.1 pN”. In addition, the half-maximal inhibitory concentration (IC50) in series [4] is ~20 µg/mL (≈ 61.1 µM). Further, in the series on OVA-sensitized mice [5], the IgE decrease result was “about 23%” and the IgG decrease result is “about 30%”. The “body weight variation versus time” value in series [6] is “steadily increased”. Also, the MTD in series [7] was ~400 mg/kg. Besides, the “side effect: body swollen” value in the series on OVA-sensitized mice [8] is on record as “does not cause the similar side effect”.
